# Reference: PubChem BioAssay AID330 (DTP/NCI, 2004)
# Where “and” joins values, the source holds several entries; their conditions need not be identical. Equal values may be shown once. Inconclusive results and toxic doses are left out.
# Tested on: P388 leukemia ip, CD2F1 mice, survival T/C
# Test: NCI In Vivo Anticancer Drug Screen. Data for tumor model P388 Leukemia (intraperitoneal) in CD2F1 (CDF1) mice
# Settings: endpoint: median survival time, higher = longer survival
# Outline: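 Mice carrying the transplanted tumor received test compound or vehicle. Survival was recorded in each group, and the value is the treated-group measurement divided by that of the vehicle-treated control group.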
# [1] = dose: 50.0 mg/kg/injection, schedule: Q01DX005 (ip), vehicle: Klucel (hydroxypropylcellulose) (HPC)
# [2] = dose: 50.0 mg/kg/injection, schedule: Q01DX009 (ip), vehicle: Klucel (hydroxypropylcellulose) (HPC)
# [3] = dose: 100.0 mg/kg/injection, schedule: Q01DX009 (ip), vehicle: Klucel (hydroxypropylcellulose) (HPC)
# [4] = dose: 25.0 mg/kg/injection, schedule: Q01DX009 (ip), vehicle: saline with Tween-80
structure (smiles),measurement,setting,value
O=C1c2c(O)ccc(O)c2C(=O)c2c(NCCCCO)ccc(NCCCCO)c21,T/C,"dose: 0.62 mg/kg/injection, schedule: Q01DX009 (ip), vehicle: acid diluted with saline",103 % of control
same,T/C,"dose: 1.25 mg/kg/injection, schedule: Q01DX009 (ip), vehicle: acid diluted with saline",103 % of control
same,T/C,"dose: 2.5 mg/kg/injection, schedule: Q01DX009 (ip), vehicle: acid diluted with saline",103 % of control
same,T/C,"dose: 5.0 mg/kg/injection, schedule: Q01DX009 (ip), vehicle: acid diluted with saline",112 % of control
same,T/C,"dose: 10.0 mg/kg/injection, schedule: Q01DX009 (ip), vehicle: acid diluted with saline",102 % of control
same,T/C,"dose: 20.0 mg/kg/injection, schedule: Q01DX009 (ip), vehicle: acid diluted with saline",100 % of control
same,T/C,"dose: 40.0 mg/kg/injection, schedule: Q01DX009 (ip), vehicle: acid diluted with saline",98 % of control
same,T/C,"dose: 80.0 mg/kg/injection, schedule: Q01DX009 (ip), vehicle: acid diluted with saline",92 % of control
same,T/C,"dose: 160.0 mg/kg/injection, schedule: Q01DX009 (ip), vehicle: acid diluted with saline",86 % of control
CCOC(=O)C(CC(C)C)NC(=O)C(Cc1ccc(N(CCCl)CCCl)cc1)NC(C)=O (stereo not drawn),T/C,"dose: 0.25 mg/kg/injection, schedule: Q01DX009 (ip), vehicle: saline",101 % of control
same,T/C,"dose: 0.5 mg/kg/injection, schedule: Q01DX009 (ip), vehicle: saline",115 % of control
same,T/C,"dose: 1.0 mg/kg/injection, schedule: Q01DX009 (ip), vehicle: saline",111 % of control
same,T/C,"dose: 2.0 mg/kg/injection, schedule: Q01DX009 (ip), vehicle: Klucel (hydroxypropylcellulose) (HPC)",109 % of control
same,T/C,"dose: 2.0 mg/kg/injection, schedule: Q01DX009 (ip), vehicle: olive oil, sesame oil, peanut oil",111 % of control
same,T/C,"dose: 2.0 mg/kg/injection, schedule: Q01DX009 (ip), vehicle: saline with Tween-80",100 % of control
same,T/C,"dose: 4.0 mg/kg/injection, schedule: Q01DX009 (ip), vehicle: Klucel (hydroxypropylcellulose) (HPC)",110 % of control
same,T/C,"dose: 4.0 mg/kg/injection, schedule: Q01DX009 (ip), vehicle: olive oil, sesame oil, peanut oil",120 % of control
same,T/C,"dose: 4.0 mg/kg/injection, schedule: Q01DX009 (ip), vehicle: saline with Tween-80",100 % of control
same,T/C,"dose: 8.0 mg/kg/injection, schedule: Q01DX009 (ip), vehicle: Klucel (hydroxypropylcellulose) (HPC)",120 % of control
same,T/C,"dose: 8.0 mg/kg/injection, schedule: Q01DX009 (ip), vehicle: saline with Tween-80",109 % of control
same,T/C,"dose: 8.0 mg/kg/injection, schedule: Q01DX009 (ip), vehicle: saline",163 % of control
same,T/C,"dose: 12.5 mg/kg/injection, schedule: Q01DX005 (iv), vehicle: Klucel (hydroxypropylcellulose) (HPC)",116 % of control
same,T/C,"dose: 16.0 mg/kg/injection, schedule: Q01DX009 (ip), vehicle: saline with Tween-80",111 % of control
same,T/C,"dose: 16.0 mg/kg/injection, schedule: Q01DX009 (ip), vehicle: saline",163 % of control and 225 % of control
same,T/C,"dose: 16.0 mg/kg/injection, schedule: Q04DX003 (ip), vehicle: saline with Tween-80",152 % of control
same,T/C,"dose: 18.9 mg/kg/injection, schedule: Q04DX003 (ip), vehicle: saline with Tween-80",152 % of control
same,T/C,"dose: 25.0 mg/kg/injection, schedule: Q01DX005 (ip), vehicle: Klucel (hydroxypropylcellulose) (HPC)",174 % of control
same,T/C,"dose: 28.4 mg/kg/injection, schedule: Q04DX003 (ip), vehicle: saline with Tween-80",161 % of control
same,T/C,"dose: 32.0 mg/kg/injection, schedule: Q01DX009 (ip), vehicle: Klucel (hydroxypropylcellulose) (HPC)",172 % of control
same,T/C,"dose: 32.0 mg/kg/injection, schedule: Q01DX009 (ip), vehicle: olive oil, sesame oil, peanut oil",175 % of control
same,T/C,"dose: 32.0 mg/kg/injection, schedule: Q01DX009 (ip), vehicle: saline with Tween-80",117 % of control
same,T/C,"dose: 32.0 mg/kg/injection, schedule: Q04DX003 (ip), vehicle: saline with Tween-80",189 % of control
same,T/C,"dose: 42.6 mg/kg/injection, schedule: Q04DX003 (ip), vehicle: saline with Tween-80",172 % of control
same,T/C,[1],230 % of control
same,T/C,"dose: 50.0 mg/kg/injection, schedule: Q01DX005 (iv), vehicle: Klucel (hydroxypropylcellulose) (HPC)",156 % of control
same,T/C,"dose: 64.0 mg/kg/injection, schedule: Q01DX009 (ip), vehicle: Klucel (hydroxypropylcellulose) (HPC)",151 % of control
same,T/C,"dose: 64.0 mg/kg/injection, schedule: Q04DX003 (ip), vehicle: saline with Tween-80",188 % of control and 211 % of control
same,T/C,"dose: 96.0 mg/kg/injection, schedule: Q04DX003 (ip), vehicle: saline with Tween-80",170 % of control
same,T/C,"dose: 128.0 mg/kg/injection, schedule: Q01DX009 (ip), vehicle: saline with Tween-80",152 % of control
same,T/C,"dose: 256.0 mg/kg/injection, schedule: Q01DX009 (ip), vehicle: other",151 % of control
same,T/C,"dose: 256.0 mg/kg/injection, schedule: Q01DX009 (ip), vehicle: saline with Tween-80",152 % of control and 157 % of control
same,T/C,"dose: 512.0 mg/kg/injection, schedule: Q01DX009 (ip), vehicle: other",179 % of control
same,T/C,"dose: 512.0 mg/kg/injection, schedule: Q01DX009 (ip), vehicle: saline with Tween-80",185 % of control
Clc1cccc(N=Cc2ccc(C=Nc3cccc(Cl)c3)cc2)c1,T/C,[2],94 % of control
same,T/C,[3],98 % of control
SC(Cc1nc2ccccc2[nH]1)c1nc2ccccc2[nH]1 (stereo not drawn),T/C,"dose: 100.0 mg/kg/injection, schedule: Q01DX001 (ip), vehicle: Klucel + Tween-80",93 % of control
same,T/C,"dose: 200.0 mg/kg/injection, schedule: Q01DX001 (ip), vehicle: Klucel + Tween-80",93 % of control
same,T/C,"dose: 400.0 mg/kg/injection, schedule: Q01DX001 (ip), vehicle: Klucel + Tween-80",100 % of control
CCS(=O)(=O)/C=C\S(=O)(=O)CC,T/C,"dose: 1.56 mg/kg/injection, schedule: Q04DX003 (ip), vehicle: Klucel (hydroxypropylcellulose) (HPC)",100 % of control
same,T/C,"dose: 3.12 mg/kg/injection, schedule: Q04DX003 (ip), vehicle: Klucel (hydroxypropylcellulose) (HPC)",98 % of control
same,T/C,"dose: 6.25 mg/kg/injection, schedule: Q04DX003 (ip), vehicle: Klucel (hydroxypropylcellulose) (HPC)",100 % of control
O=C(CCCCCS)NCCCCCCCCCCNC(=O)CCCCCS,T/C,"dose: 100.0 mg/kg/injection, schedule: Q04DX002 (ip), vehicle: Klucel (hydroxypropylcellulose) (HPC)",97 % of control
same,T/C,"dose: 200.0 mg/kg/injection, schedule: Q04DX002 (ip), vehicle: Klucel (hydroxypropylcellulose) (HPC)",92 % of control
same,T/C,"dose: 400.0 mg/kg/injection, schedule: Q04DX002 (ip), vehicle: Klucel (hydroxypropylcellulose) (HPC)",90 % of control
CC(=O)Oc1cc(C)cc2c1[C@@]1(C)CC[C@H]3[C@@H](CC[C@H]4C[C@@H](OC(C)=O)CC[C@@]43C)[C@@H]1C2,T/C,[1],96 % of control
same,T/C,"dose: 100.0 mg/kg/injection, schedule: Q01DX005 (ip), vehicle: Klucel (hydroxypropylcellulose) (HPC)",96 % of control
same,T/C,"dose: 200.0 mg/kg/injection, schedule: Q01DX005 (ip), vehicle: Klucel (hydroxypropylcellulose) (HPC)",107 % of control
O=[N+]([O-])c1cccc(C(O)(C(F)(F)F)C(F)(F)F)c1,T/C,[4],95 % of control
same,T/C,"dose: 50.0 mg/kg/injection, schedule: Q01DX009 (ip), vehicle: saline with Tween-80",97 % of control
same,T/C,"dose: 100.0 mg/kg/injection, schedule: Q01DX009 (ip), vehicle: saline with Tween-80",106 % of control
same,T/C,"dose: 100.0 mg/kg/injection, schedule: Q04DX002 (ip), vehicle: suspension in saline",112 % of control
same,T/C,"dose: 200.0 mg/kg/injection, schedule: Q01DX009 (ip), vehicle: saline with Tween-80",98 % of control
CN(C)C(=S)SCNC(=S)NCSC(=S)N(C)C,T/C,"dose: 6.25 mg/kg/injection, schedule: Q01DX009 (ip), vehicle: saline with Tween-80",104 % of control
same,T/C,"dose: 12.5 mg/kg/injection, schedule: Q01DX009 (ip), vehicle: saline with Tween-80",110 % of control and 117 % of control
same,T/C,[4],116 % of control and 121 % of control
CCN(CC)Cc1cc(N=Nc2cc(OC)c(N=Nc3ccc([N+](=O)[O-])cc3)cc2OC)c2ccccc2c1O,T/C,"dose: 12.5 mg/kg/injection, schedule: Q01DX009 (ip), vehicle: Klucel (hydroxypropylcellulose) (HPC)",110 % of control
same,T/C,"dose: 25.0 mg/kg/injection, schedule: Q01DX009 (ip), vehicle: Klucel (hydroxypropylcellulose) (HPC)",100 % of control
same,T/C,[2],107 % of control and 90 % of control
same,T/C,[3],100 % of control (2×) and 94 % of control
same,T/C,"dose: 400.0 mg/kg/injection, schedule: Q01DX009 (ip), vehicle: Klucel (hydroxypropylcellulose) (HPC)",101 % of control and 91 % of control
CN(Nc1ccnc(=O)[nH]1)c1ccccc1,T/C,"dose: 60.0 mg/kg/injection, schedule: Q01DX005 (ip), vehicle: saline with Tween-80",105 % of control
same,T/C,"dose: 120.0 mg/kg/injection, schedule: Q01DX005 (ip), vehicle: saline with Tween-80",102 % of control
same,T/C,"dose: 240.0 mg/kg/injection, schedule: Q01DX005 (ip), vehicle: saline with Tween-80",93 % of control
